# Where two headings read alike, the source gives them in different places.
# Experiments:
# [1] = Lymphoblast assay, effects on cell growth, SupT-1 T-cell line; assay type: cell-based; details: human, supt-1 cells, AICA riboside alone, SUP T-1, read-out: reduction in T-cell growth
# Procedure: (§1) Several lymphoblast lines were utilized in conjunction with varying doses of antiviral agents to determine their effects on cell growth. In this method a daily cell count over a period of time, post-addition of antiviral compounds, can be compared with the normal cell growth curve.
# (§2) Two representative T-cell lines, SupT-1 and CEM, and a B-cell line, WI-L2, were grown to mid-log phase 5×10^5 cells/ml in 50 ml of RPMI 1640 (Irvine Scientific) supplemented with 10% heat-inactivated fetal calf serum (Gemini-Bioproducts) and 1% glutamine (Gibco) to standardize seeding conditions and to assure a population of logarithmically growing cells.
# (§3) An appropriate number cf T-25 flasks (Corning) were seeded with evenly suspended cells at 0.5×10^5 cells/ml in 20 ml of fresh growth media. Including a control condition, each set of flasks was treated with a dose range of antiviral compound for each cell line. Each dose condition was repeated in triplicate. All flasks were incubated for 5 days at 37° C. in a 5% CO2 incubator.
# (§4) Every 24 hours for 5 days, three 0.2 ml samples of each flask were diluted in 9.8 ml of isoton (Fisher Scientific) and counted on a cell counter (Coulter Co.). The average of each flask was recorded, and the average of each triplicate antiviral does was then averaged and recorded.
# [2] = system: HIV; assay: HIV syncitial forming assay using SupT-1 cells; assay type: cell-based; details: AICA riboside 5 μM-500 μM
# Procedure: The assay was performed following the procedure described in Example Three except that SupT-1 cells were used. Using the SupT-1 cells, the medium was not changed at day 5 post-infection and the syncitia were counted at day 5 post-infection at 40X. The results are plotted in FIGS. 5, 6(b), and 7.
# [3] = system: Chinese hamster lung fibroblasts; details: cited from earlier work
# [4] = system: HIV-1; assay: HIV syncitial forming assay using CEM-SS cells; assay type: cell-based
# From the text: The following cytomorphologic infectivity bioassay was used to characterize antiviral activity against HIV-1. In the following assay a single infectious unit of virus infects a single cell and initiates a focal expression of that infection, i.e., a syncitium. Since a single infectious unit leads to a discrete response, a linear relationship exists between the number of virally-induced cytopathic effects and the first order of virus concentration. Application of this procedure in assays for virus inactivation allows for evaluation of the candidate antiviral agent.
# CEM-SS (syncitium-sensitive Leu 3a-positive CEM cell line) cells were grown in RPMI 1640 cell culture media (Irvine Scientific) supplemented with 10% heat-inactivated fetal bovine serum (Gemini Bioproducts) and 1% […] glutamine (Gibco). Log-phase cells were split 1:2 with the growth medium the day prior to setting up the assay to standardize plating conditions and to assure a population of logarithmically growing cells. Ninety-six-well plates (Costar) were pretreated with 50 μl of 50 μg/ml poly-1-lysine (MW=295,000 Sigma) "PLL") and were left at room temperature for 60 minutes. Residual PLL was removed with two washes of PBS. The plates were stored in the incubator until used.
# On the day of the assay, the cells were counted and enough cells were harvested to plate each well with 5.0×10^4 cells per well in a volume of 200 μl (or 20 ml of […] was appropriate for each 96-well microtitre plate).
# The cells were plated out on the PLL pre-treated microtitre plates at 5.0×10^4 cells/well in a volume of 200 μl. After allowing attachment for 30 minutes at 37° C. and 5% CO2, the antiviral agent(s) were added in the noted amounts and the treated plates were pre-incubated for 24 hours.
# The HIV-1 virus stock (isolated from infected H-9 cells) was diluted in growth medium to yield 100 SFU (syncytial-forming units) per well. Diluted HIV-1 virus, 20 μl, was added to appropriate wells. All the plates were then incubated for 5 days at 37° C. and 5% CO2. On day 5 post-infection, the cells were given a 100 μl media change. […]
# [5] = Lymphoblast assay, effects on cell growth, CEM T-cell line; assay type: cell-based; details: human, cem cells, AICA riboside alone, read-out: reduction in T-cell growth
# Procedure: as §1, §2, §3, §4
compound,measurement,setting,value
"NC(=O)c1ncn([C@@H]2O[C@H](CO)[C@@H](O)[C@H]2O)c1N [AICA riboside, 5-amino-1-β-D-ribofuranosyl-imidazole-4-carboxamide]",inhibition at 500 µM,[1],30 to 50%
same,effectiveness against the AIDS virus (prevention of syncitial formation),[2],less than 100%
same,expansion of the purine pool (ATP and GTP),[3]; 50 μM and 200 μM,about 40%
same,growth rate,"[3]; 50 μM and 200 μM, reversible by uridine",reduced growth rate
same,"drop in PRPP availability, measured by adenine incorporation",[3]; 50 μM,18%
same,"drop in PRPP availability, measured by adenine incorporation",[3]; 200 μM,82%
same,effect on cell growth,"[3]; 200 μM, reversed by uridine",arrested cell growth
same,cytotoxicity,[3]; 700 μM,no cytotoxicty
same,UTP and CTP pools,[3],decreased by a factor of approximately ten
same,antiviral effect (number of syncitia),"[4]; AICA riboside 5 μM and 50 μM, 24 hour preincubation before HIV infection",antiviral effect
same,antiviral effect with preincubation versus addition at the time of infection,"[4]; CEM cells, HIV",more effective as an antiviral with preincubation
same,inhibition at 500 µM,[5],30 to 50%
